Assay results published in US5567704A, “R-enatiomerically pure hydroxylated xanthine compounds to treat baldness” (priority 1995, dated 1996).

How the values were obtained:
[1] = endotoxin induced lethality in mice (survival); type: in vivo, mouse; details: mouse, in vivo, ip; CT1501R alone, no LPS, ten mice, same schedule
Description: (§1) Animals were treated with 10 μg/gm of LPS (i.v.) Immediately following the LPS (t=0), 2 hrs after the LPS (t=2) or 4 hrs following LPS (t=4) the mice were treated with their first treatment of CT1501R (100 mg/kg, i.p.). The mice were treated with CT1501R three times per day thereafter, and animal survival was monitored.
(§2) This example illustrates the effect of CT1501R on survival in mice given a lethal dose of endotoxin. We determined if CT1501R protects against endotoxin induced lethality in a murine model. Septic shock was modeled by endotoxin injection of 6-8 week old female Balb/c mice similar to previously published reports (Ashkenazi et al. Proc. Natl. Acad. Sci. U.S.A. 88: 10535-10539, 1991.) under protocols approved by the Animal Use Committee of the Biomembrane Institute, Seattle, Wash. Animals were injected intravaneously (i.v.) with an approximate LD100 dose (10 μg) of Salmonella abortus equi-derived endotoxin (Sigma Chemical Co., L-1887) in phosphate buffered saline (PBS). […] Control mice were injected at the same times with a similar volume of vehicle control (PBS). Survival was followed for at least 72 hours.
(§3) Ten mice were treated each with PBS alone or CT1501R alone on the same schedule as the experimental mice. […] Endotoxin survival data were summarized from a total of six (6) independent experiments. Summary Table 1 details the results of each of the six experiments. In FIG. 5, each time point represents a minimum of three (3) experiments comprising at least twenty (20) mice per group. A probability analysis of the survival data using a Fisher's Exact One Tailed Test is given as Table 3. Significant protection was conferred if CT1501R was administered immediately after the LPS treatment. The cumulative percent survival at 72 hours post LPS treatment was 60% compared to 7% for the LPS-only treated animals (p=<0.0005; Table 3).

[2] = test system: Balb/c mice given a lethal dose of endotoxin; test: endotoxin induced lethality in mice (survival); type: in vivo, mouse; details: for cumulative percent survival: 72 hours post LPS
Description: as §1, §2, §3

nu/nu mice = test: nude mouse hair studies, topical application; type: in vivo
Excerpt: This example illustrates nude mouse hair studies involving topical application of CT1501R. Six to eight week old, female, nu/nu mice from Charles River Laboratories were housed at Biosupport Research Support Services (Seattle, Wash.) in autoclaved micro isolator units with hyperchlorinated autoclaved water, irradiated rodent chow and kept under a laminar flow hood. Caging was changed weekly, and water was changed twice weekly. The mice were acclimated for 5 days before beginning each study.
The first topical formulation was prepared by adding CT1501R to a heated hydrophilic ointment (USP) at a 1% concentration, and allowed to solidify.
Nude mice were painted twice daily for 16 days with the first topical formulation of CT1501R on the left flank and another compound in the same base on the right flank with sterile applicators. Mice were handled under the laminar flow hood with applicator wearing face mask and sterile gloves. After 16 days, one mouse was sacrificed by cervical dislocation and skin biopsies were taken of the treated areas of the shoulder/flank and from the non-treated area of the dorsal pelvis (rump). Specimens were placed in 10% buffered formalin solution. Biopsies were sent to a veterinary dermopathologist for histopathology. Six weeks following treatment, a second mouse was euthanatized and biopsied the same as the first. Samples were sent for histopathology.
In a second experiment, topical application of CT1501R was performed along with a commercial topical minoxidil preparation (Rogaine®, Upjohn) that is approved for a hair growth indication. Five to six week old, female, nu/nu mice from Bantin and Kingman Universal were housed at Biosupport Research Support Services (Seattle, Wash.) in autoclaved micro isolator units with hyper chlorinated autoclaved water, irradiated rodent chow and kept under a laminar flow hood. Caging was changed weekly, and water was changed twice weekly. Mice were acclimated for 7 days before beginning study.
CT1501R, and two other compounds were prepared in a topical formulation of 60% ETOH, 10% water and 30% PEG along with vehicle only. Minoxidil was purchased as the commercial preparation Rogaine® from a local pharmacy. Rogaine® is sold in the same formulation base. Mice were identified by unique tail markings specific for each test article. Two mice per group were treated with CT1501R and another compound. One mouse was treated with each of vehicle and minoxidil. The mice were handled under the laminar flow hood with the applicator wearing face mask and sterile gloves. Each mouse was treated twice daily with a separate sterile applicator to avoid contamination of the solutions or the mice. All mice were applied a strip of appropriate test article along the center line of the back from the base of the skull to the base of the tail, approximately 1.5 cm wide. After 34 days all mice were euthanatized by overdose of halothane anesthesia. Skin biopsies were taken from each of the 7 mice over the nape of the neck between the scapulas (approximate size was 1×1.5 cm). All specimens were blotted on gauze to remove blood and fluids, affixed to a cut piece of wooden tongue depressor, and placed specimen side down in separately marked containers with 10% buffered formalin. Specimens were shipped to a veterinary dermatopathologist for qualitative histopathological determinations.

[3] = first experiment, 1% in hydrophilic ointment, twice daily 16 days

## C[C@@H](O)CCCCn1c(=O)c2c(ncn2C)n(C)c1=O [CT1501R, (R)-1-(5-hydroxyhexyl)-3,7-dimethylxanthine]
[1]
  survival: 100%
[2]; CT1501R four hours after LPS
  cumulative percent survival: 37%
[2]; CT1501R immediately after LPS
  cumulative percent survival: 60%
[2]; CT1501R two hours after LPS
  cumulative percent survival: 55%
[2]; CT1501R alone, no LPS, ten mice, same schedule
  adverse effects: no adverse effects noted
[2]; Expt. 1, CT-1501R t = 0 Hr post LPS, 24 Hr post LPS
  Survival (Number Surviving/Total): 4/5
[2]; Expt. 1, CT-1501R t = 0 Hr post LPS, 48 Hr post LPS
  Survival (Number Surviving/Total): 4/5
[2]; Expt. 1, CT-1501R t = 0 Hr post LPS, 72 Hr post LPS
  Survival (Number Surviving/Total): 4/5
[2]; Expt. 1, CT-1501R t = 2 Hr post LPS, 24 Hr post LPS
  Survival (Number Surviving/Total): 4/5
[2]; Expt. 1, CT-1501R t = 2 Hr post LPS, 48 Hr post LPS
  Survival (Number Surviving/Total): 3/5
[2]; Expt. 1, CT-1501R t = 2 Hr post LPS, 72 Hr post LPS
  Survival (Number Surviving/Total): 3/5
[2]; Expt. 2, CT-1501R t = 0 Hr post LPS, 24 Hr post LPS
  Survival (Number Surviving/Total): 5/5
[2]; Expt. 2, CT-1501R t = 0 Hr post LPS, 48 Hr post LPS
  Survival (Number Surviving/Total): 5/5
[2]; Expt. 2, CT-1501R t = 0 Hr post LPS, 72 Hr post LPS
  Survival (Number Surviving/Total): 5/5
[2]; Expt. 2, CT-1501R t = 2 Hr post LPS, 24 Hr post LPS
  Survival (Number Surviving/Total): 5/5
[2]; Expt. 2, CT-1501R t = 2 Hr post LPS, 48 Hr post LPS
  Survival (Number Surviving/Total): 5/5
[2]; Expt. 2, CT-1501R t = 2 Hr post LPS, 72 Hr post LPS
  Survival (Number Surviving/Total): 5/5
[2]; Expt. 3, CT-1501R t = 4 Hr post LPS, 24 Hr post LPS
  Survival (Number Surviving/Total): 5/5
[2]; Expt. 3, CT-1501R t = 4 Hr post LPS, 48 Hr post LPS
  Survival (Number Surviving/Total): 3/5
[2]; Expt. 3, CT-1501R t = 4 Hr post LPS, 72 Hr post LPS
  Survival (Number Surviving/Total): 3/5
[2]; Expt. 4, CT-1501R t = 4 Hr post LPS, 24 Hr post LPS
  Survival (Number Surviving/Total): 7/10
[2]; Expt. 4, CT-1501R t = 4 Hr post LPS, 48 Hr post LPS
  Survival (Number Surviving/Total): 5/10
[2]; Expt. 4, CT-1501R t = 4 Hr post LPS, 72 Hr post LPS
  Survival (Number Surviving/Total): 5/10
[2]; Expt. 5, CT-1501R t = 0 Hr post LPS, 24 Hr post LPS
  Survival (Number Surviving/Total): 9/10
[2]; Expt. 5, CT-1501R t = 0 Hr post LPS, 48 Hr post LPS
  Survival (Number Surviving/Total): 7/10
[2]; Expt. 5, CT-1501R t = 0 Hr post LPS, 72 Hr post LPS
  Survival (Number Surviving/Total): 3/10
[2]; Expt. 5, CT-1501R t = 2 Hr post LPS, 24 Hr post LPS
  Survival (Number Surviving/Total): 5/10
[2]; Expt. 5, CT-1501R t = 2 Hr post LPS, 48 Hr post LPS
  Survival (Number Surviving/Total): 3/10
[2]; Expt. 5, CT-1501R t = 2 Hr post LPS, 72 Hr post LPS
  Survival (Number Surviving/Total): 3/10
[2]; Expt. 5, CT-1501R t = 4 Hr post LPS, 24 Hr post LPS
  Survival (Number Surviving/Total): 7/10
[2]; Expt. 5, CT-1501R t = 4 Hr post LPS, 48 Hr post LPS
  Survival (Number Surviving/Total): 4/10
[2]; Expt. 5, CT-1501R t = 4 Hr post LPS, 72 Hr post LPS
  Survival (Number Surviving/Total): 2/10
[2]; Expt. 6, CT-1501R t = 4 Hr post LPS, 24 Hr post LPS
  Survival (Number Surviving/Total): 3/10
[2]; Expt. 6, CT-1501R t = 4 Hr post LPS, 48 Hr post LPS
  Survival (Number Surviving/Total): 3/10
[2]; Expt. 6, CT-1501R t = 4 Hr post LPS, 72 Hr post LPS
  Survival (Number Surviving/Total): 3/10
[2]; drug simultaneously or two hours after lethal LPS, FIGS. 15 and 16
  survival compared with published results of Genentech's bifunctional TNF receptor: consistently was better at improving survival than Genentech's TNF receptor
[2]; n = 3 expts, CT-1501R t = 0 Hr post LPS, 24 Hr post LPS
  Cumulative survival (Number Surviving/Total): 18/20
[2]; n = 3 expts, CT-1501R t = 0 Hr post LPS, 48 Hr post LPS
  Cumulative survival (Number Surviving/Total): 16/20
[2]; n = 3 expts, CT-1501R t = 0 Hr post LPS, 72 Hr post LPS
  Cumulative survival (Number Surviving/Total): 12/20
[2]; n = 3 expts, CT-1501R t = 2 Hr post LPS, 24 Hr post LPS
  Cumulative survival (Number Surviving/Total): 14/20
[2]; n = 3 expts, CT-1501R t = 2 Hr post LPS, 48 Hr post LPS
  Cumulative survival (Number Surviving/Total): 11/20
[2]; n = 3 expts, CT-1501R t = 2 Hr post LPS, 72 Hr post LPS
  Cumulative survival (Number Surviving/Total): 11/20
[2]; n = 4 expts, CT-1501R t = 4 Hr post LPS, 24 Hr post LPS
  Cumulative survival (Number Surviving/Total): 22/35
[2]; n = 4 expts, CT-1501R t = 4 Hr post LPS, 48 Hr post LPS
  Cumulative survival (Number Surviving/Total): 15/35
[2]; n = 4 expts, CT-1501R t = 4 Hr post LPS, 72 Hr post LPS
  Cumulative survival (Number Surviving/Total): 13/35
nu/nu mice; [3]
  hair follicles, histopathology: significantly more normal appearing hair follicles than the non treated sections
  hair shafts, histopathology: Numerous hair shafts were seen exiting the follicles in the treated sections
nu/nu mice; second experiment
  hair growth promotion compared with minoxidil: at least as good at promoting hair growth in this model as minoxidil
nu/nu mice; second experiment, group of CT1501R, minoxidil and control
  visual inspection of hair: most "hairy"
nu/nu mice; second experiment, topical twice daily, 34 days
  hair follicles, subjective histopathological examination: greatest concentration of hair folicles
